Measured values from US6362207B1, “Methods of treating viral infections with benzimidazoles” (priority 1995, dated 2002).

Legend:
MX1 breast cells = assay: MTT cell viability test, breast tumor cells; format: cell-based, human; details: 5 day incubation
[1] = tested on: MCF7 (breast cancer) cells; assay: Apoptosis study (TdT assay) and cell growth; format: cell-based, human
Experimental: Summary of test results: The extent of apoptosis is measured in human tumor cell lines after treatment for 1, 2, 3 and 4 days with carbendazim. At each of these time points, the cells are harvested and assayed using the terminal deoxynucleotidyl transferase (TdT) assays. Both microscopy and flow cytometry were used for the TdT assay.
In MCF7, HT29, B16 and SK-MES cell lines, there was a concentration dependent effect on cell growth. […] After completion of the studies on the MCF7 and HT29 cell lines, it was evident that the 0.1 μg/ml concentration had little effect on either apoptosis or cell growth. Therefore subsequent assays were with 5 μg/ml instead of 0.1 μg/ml.
However, at 10 μg/ml the increase in apoptosis was evident at days 3 and 4. The increase in apoptosis was low, less than 10% at the high concentration.

In the case of COC(=O)Nc1nc2ccccc2[nH]1 [carbendazim, 2-methoxycarbonylamino-benzimidazole], the “EC-50 Result” value (MX1 breast cells; MX1, first column) was 0.829 ppm, the “EC-50 Result” value (MX1 breast cells; MX1, second column) was 0.856 ppm and the increase in apoptosis ([1]; 10 μg/ml (high concentration), days 3 and 4) was “below 10%”. For the same molecule, the cell growth ([1]; below 10 μg/ml) was “not significantly affected”.
